Experimental data taken from article PMC11596392, “Enhanced Antibacterial, Anti-Inflammatory, and Antibiofilm Activities of Tryptophan-Substituted Peptides Derived from Cecropin A-Melittin Hybrid Peptide BP100” (Molecules, 2024).
Where no end group is shown, it is not given here.

Tests used:
[1] = tested on: MDRPA (CCARM 2095) biofilm formation; assay type: cell-based, multidrug-resistant Pseudomonas aeruginosa; conditions: overnight 37 °C, crystal violet staining; for MBIC50: 50% inhibition; for MBIC90: 90% inhibition
Description: Bacterial biofilms, comprising communities of bacterial cells encased in a matrix of polysaccharides and nucleic acids, present a significant challenge for conventional antibiotics due to the protective nature of this matrix. Biofilms can enhance bacterial resistance to antibiotics by up to 1000-fold compared to planktonic bacteria. To address this issue, there is an urgent need to discover and develop novel alternative therapeutic agents capable of effectively combating biofilm-forming bacteria. […] Our research specifically focused on evaluating the impact of BP100 and its analogs on biofilm formation and eradication using multidrug-resistant Pseudomonas aeruginosa (MDRPA), a common pathogen responsible for biofilm-mediated nosocomial infections. The adhered biomass was quantified using crystal violet staining, and the minimum biofilm inhibitory concentration (MBIC90) was determined as the lowest concentration required to inhibit 90% of biofilm growth relative to the positive control. […] Human cathelicidin LL-37 is well-documented for its potent antibiofilm properties.
The inhibitory activity of the peptides on biofilm formation was evaluated against multidrug-resistant Pseudomonas aeruginosa (MDRPA) (CCARM 2095) using a biofilm inhibition assay to determine the minimal biofilm inhibitory concentration (MBIC). Peptide solutions were serially diluted in sterile water and aliquoted (100 μL) into a 96-well Costar polypropylene plate (Corning Inc., Corning, NY, USA). An equal volume of MDRPA suspension in Mueller–Hinton Broth (MHB), adjusted to 1 × 10^6 CFU/mL, was added to each well, resulting in a final inoculum density of 5 × 10^5 CFU/mL. Following overnight incubation at 37 °C, bacterial growth was quantified by measuring the optical density (OD) at 595 nm. Planktonic cells were then discarded, and the attached biofilms were washed thrice with distilled water. Residual biofilms were stained with 0.1% crystal violet for five minutes, washed to remove non-adherent dye, and subsequently destained using 95% ethanol. The OD at 595 nm was measured again to assess the biofilm mass. Control wells contained untreated bacteria. The MBIC was defined as the lowest peptide concentration that inhibited any residual crystal violet staining or biofilm formation. All assays were conducted in triplicate to ensure reproducibility. This method allows for the quantitative assessment of the peptides’ ability to prevent biofilm formation, a critical virulence factor in many bacterial infections, particularly those caused by multidrug-resistant strains.

[2] = tested on: preformed MDRPA (CCARM 2095) biofilms; assay type: cell-based, multidrug-resistant Pseudomonas aeruginosa; conditions: 24 h treatment; for MBEC50: 50% eradication; for MBEC90: 90% eradication
Method: While preventing biofilm formation on surfaces is crucial, treating established biofilm infections presents a significant challenge due to the extracellular polymeric substance (EPS) matrix hindering antibiotic penetration and the high cell density within mature biofilms. To address this challenge, we evaluated the ability of BP100 and its analogs to eradicate established MDRPA biofilms over a 24 h period. The minimum biofilm eradication concentration (MBEC90) was determined using crystal violet staining as the lowest concentration that reduced biomass by more than 90%. Among these peptides, BP5, BP6, BP7, BP8, BP9, BP11, and BP13 eradicated preformed MDRPA biofilms by more than 90% at a concentration of 8 μM (Figure 3c,d and Table 3).
The minimal biofilm eradication concentration (MBEC) for peptides against the multidrug-resistant Pseudomonas aeruginosa (MDRPA) (CCARM 2095) strain was assessed using the Calgary Biofilm Device (CBD), supplied by Innovotech, Edmonton, AB, Canada. A bacterial suspension with a density of (1 × 10^6) CFU/mL in (150 µL) of Luria–Bertani (LB) media was dispensed into each well of a 96-well microtiter plate, which was equipped with a peg lid (Innovotech, product code: 19111). This plate was incubated at 37 °C for 24 h with agitation at 110 rpm, promoting biofilm formation on the pegs. Subsequently, the peg lid was washed with phosphate-buffered saline (PBS, 0.01 M) and relocated to a fresh plate containing varying peptide concentrations (200 µL per well). The biofilms were then subjected to these peptides under the same incubation conditions. After another PBS rinse, the peg lid was moved to a recovery plate filled with (200 µL) of LB media per well. To detach the biofilms from the pegs, the recovery plate underwent sonication in a water bath for 10 to 15 min. Finally, the recovery plate was incubated at 37 °C for 24 h with agitation at 110 rpm, allowing any surviving bacteria to proliferate and cause turbidity. The MBEC is defined as the lowest concentration of peptides that inhibited turbidity formation in the recovery plate in comparison to sterility controls. This experiment was conducted in triplicate, and the median value from each trial was recorded.

[3] = tested on: P. aeruginosa (KCTC 1637); assay type: cell-based, Pseudomonas aeruginosa; conditions: broth microdilution in MHB, 37 °C, 24 h, 100% inhibition of growth
Method: (§1) The antibacterial efficacy of the synthesized peptides was evaluated by determining the minimal inhibitory concentrations (MICs) against six standard bacterial strains and five drug-resistant bacterial strains using the Clinical and Laboratory Standards Institute (CLSI) microdilution method. Melittin served as the positive control.
(§2) The minimal inhibitory concentrations (MICs) of the peptides against bacterial strains were determined using a modified broth-microdilution method in accordance with the National Committee for Clinical Laboratory Standards (NCCLS) guidelines. Overnight cultures were diluted in cation-adjusted Mueller–Hinton Broth (MHB) to achieve an inoculum density of 2 × 10^6 CFU/mL. A two-fold serial dilution of the peptide solution (100 μL) was introduced into microtiter plates, followed by the addition of 100 μL of bacterial suspension. The plates were then incubated at 37 °C for 24 h to determine the MICs. Wells containing only culture media served as negative controls, while those with added bacteria functioned as positive controls. The MIC, expressed in μM, was defined as the lowest peptide concentration that prevented visible bacterial growth. This protocol was also employed to determine MICs in the presence of physiological salts (150 mM of NaCl, 4.5 mM of KCl, 6 μM of NH4Cl, 1 mM of MgCl2, 2.5 mM of CaCl2, and 4 μM of FeCl3) and 20% human serum to assess the peptides’ efficacy under conditions more closely resembling physiological environments. All experiments were conducted in triplicate and repeated three times independently to ensure reproducibility and statistical significance of the results.

MDRPA (CCARM 2109) = assay type: cell-based, multidrug-resistant Pseudomonas aeruginosa; conditions: broth microdilution in MHB, 37 °C, 24 h, 100% inhibition of growth
Method: as §1, §2

MDRPA (CCARM 2095) = assay type: cell-based, multidrug-resistant Pseudomonas aeruginosa; conditions: broth microdilution in MHB, 37 °C, 24 h, 100% inhibition of growth
Method: as §1, §2

[4] = tested on: S. typhimurium (KCTC 1926); assay type: cell-based, Salmonella typhimurium; conditions: broth microdilution in MHB, 37 °C, 24 h, 100% inhibition of growth
Method: as §1, §2

MRSA (CCARM 3090) = assay type: cell-based, methicillin-resistant Staphylococcus aureus; conditions: broth microdilution in MHB, 37 °C, 24 h, 100% inhibition of growth
Method: as §1, §2

MRSA (CCARM 3089) = assay type: cell-based, methicillin-resistant Staphylococcus aureus; conditions: broth microdilution in MHB, 37 °C, 24 h, 100% inhibition of growth
Method: as §1, §2

Substance	MBIC50 [1] [µM]	MBIC90 [1] [µM]	MBEC50 [2] [µM]	MBEC90 [2] [µM]	Minimal Inhibitory Concentration (MIC) [3] [µM]	Minimal Inhibitory Concentration (MIC) (MDRPA (CCARM 2109)) [µM]	Minimal Inhibitory Concentration (MIC) (MDRPA (CCARM 2095)) [µM]	Minimal Inhibitory Concentration (MIC) [4] [µM]	Minimal Inhibitory Concentration (MIC) (MRSA (CCARM 3090)) [µM]	Minimal Inhibitory Concentration (MIC) (MRSA (CCARM 3089)) [µM]
KKLFKKIWKWL-NH2 [BP11]	4 to 8	8	4 to 8	8	8	16	8	2	32	8
KKLFKKWLKYW-NH2 [BP10]	16 to 32	32	8 to 16	16	8	16	16	8	64	64
KKLFKKWWKWL-NH2 [BP16]	8 to 16	16	16	32	8	32	32	16	128	16
KKLFKKWWKYL-NH2 [BP9]	8 to 16	16	4	8	16	16	16	4	64	64
KKLWKKILKWL-NH2 [BP8]	4 to 8	8	2	8	16	16	8	4	16	16
KKLWKKIWKYL-NH2 [BP7]	4 to 8	8	4 to 8	8	8	4	8	2	32	8
KKLWKKIWKYW-NH2 [BP15]	4 to 8	8	8 to 16	16	8	8	16	4	64	16
KKLWKKWLKYW-NH2 [BP14]	8 to 16	16	8 to 16	16	8	8	16	8	32	16
KKWFKKILKWL-NH2 [BP6]	4 to 8	8	4	8	16	16	8	4	16	8
KKWFKKWLKWL-NH2 [BP13]	4 to 8	8	4	8	16	16	8	8	32	32
KKWWKKILKYL-NH2 [BP5]	4 to 8	8	2	8	4	4	8	2	8	4
